The text below walks through data of PMC9782819, “Ramosin: The First Antibacterial Peptide Identified on Bolitoglossa ramosi Colombian Salamander” (Pharmaceutics, 2022).

Where no end group is shown, it is not given here.

The test system of data set [1] is Staphylococcus aureus ATCC 29,213. Description: Broth microdilution endpoint assay / MIC. It is filed as cell-based. To be noted: 19 h treatment, absorbance 600 nm, p > 0.005. The method, then: (§1) To determine the minimum inhibitory concentrations (MICs) of the candidate peptides, the 96-well plate microdilution assay, described by the Clinical and Laboratory Standards Institute (CLSI) and the European Committee on Antimicrobial Susceptibility Testing (EUCAST), was performed. For testing the antimicrobial activity of the candidate peptides, Gram-positive and Gram-negative bacterial strains were used. […] For this assay, 3 to 5 colonies were taken from the agar and grown to exponential phase in tryptic soy broth (TSB) liquid medium defined as a 0.5 McFarland value measured with a densichek plus (Biomérieux). […] The plates were incubated for 18 h at 37 °C, and subsequently the absorbance was read in a MultiSkan GO (Thermofisher, Waltham, MA, USA) at 600 nm. […] To determine if the effect of the peptides was bactericidal or bacteriostatic, once the absorbance reading was completed, 10 μL were taken from each well where bacterial growth inhibition was observed and they were sown in TSA agars and incubated at 37 °C for 24 h. […]
(§2) All bacterial strains used were ATCC reference strains. The antibacterial activity of Ramosin was evaluated using the Wiegand et al. protocol. […]
(§3) In addition to absorbance measurement, a bacterial growth test was performed. […]

Data set [2] has the same test system. Description: Growth inhibition kinetics (bactericidal or bacteriostatic). It is filed as cell-based. To be noted: 19 h, peptide 70 μM. As for the experimental part:
as §1, §2, §3

Data set [3] relates to Bacillus cereus ATCC 6464. Described as above. It counts as cell-based. To be noted: 19 h, peptide 70 μM. As for the experimental part: (§4) To determine the minimum inhibitory concentrations (MICs) of the candidate peptides, the 96-well plate microdilution assay, described by the Clinical and Laboratory Standards Institute (CLSI) and the European Committee on Antimicrobial Susceptibility Testing (EUCAST), was performed. For testing the antimicrobial activity of the candidate peptides, Gram-positive and Gram-negative bacterial strains were used. The strains used were Staphylococcus aureus ATCC 29,213 (S. aureus), Enterococcus faecalis ATCC 29,212 (E. faecalis), Bacillus cereus ATCC 6464 (B. cereus), and Micrococcus luteus ATCC 9341 (M. luteus) as Gram-positive, and Escherichia coli ATCC 25,922 (E. coli), Pseudomonas aeruginosa ATCC 27,853 (P. aeruginosa), and Salmonella typhimurium ATCC 14,028 (S. typhimurium) as Gram-negative. The bacteria were cultivated in tryptic soy agar (TSA) until the time of carrying out the antimicrobial activity assay. For this assay, 3 to 5 colonies were taken from the agar and grown to exponential phase in tryptic soy broth (TSB) liquid medium defined as a 0.5 McFarland value measured with a densichek plus (Biomérieux). Bacteria were diluted to a final concentration of 5 × 10^5 CFU/mL. […] The plates were incubated for 18 h at 37 °C, and subsequently the absorbance was read in a MultiSkan GO (Thermofisher, Waltham, MA, USA) at 600 nm. […] To determine if the effect of the peptides was bactericidal or bacteriostatic, once the absorbance reading was completed, 10 μL were taken from each well where bacterial growth inhibition was observed and they were sown in TSA agars and incubated at 37 °C for 24 h. […]
(§5) All bacterial strains used were ATCC reference strains. The antibacterial activity of Ramosin was evaluated using the Wiegand et al. protocol. […] Two types of tests were carried out: the endpoint, in which the absorbance of the plates was read after 19 h of treatment, and kinetics, in which plate readings were made every hour to determine whether the effect of the peptides was bactericidal or bacteriostatic.
as §3

For data set [4], the system named is Escherichia coli ATCC 25,922. Described as above. It is filed as cell-based. To be noted: 19 h, peptide 70 μM. The method, then: as §4, §5, §3
The subject of data set [5] is Pseudomonas aeruginosa ATCC 27,853. The description is as above. It is filed as cell-based. To be noted: 19 h, peptide 70 μM. The method, then:
as §4, §5, §3

The subject of data set [6] is Escherichia coli ATCC 25,922. It is filed as cell-based. The note with it: ATCC 25, 18 h. The method, then:
as §1, §2, §3

Protocol for human red blood cells: The hemolytic activity of the peptide was determined as previously reported [45]. In brief, its hemolytic activity of the peptide was evaluated by determining the amount of the released hemoglobin from a 4% v/v suspension of fresh human red blood cells (RBCs). In 96-well plates, 65 μL of the RBCs suspension and 65 μL of each peptide dilution were mixed. […] Plates were incubated at 37 °C for two hours, then centrifuged at 2500× g for 5 min. A total of 80 μL of supernatant was recovered and transferred to another 96-well plate, and absorbance at 540 nm was measured in a MultiSkan GO (Thermofisher, Waltham, MA, USA). The percentage of hemolysis was calculated according to the following formula [45]: (1) %Hemolysis=OD450 in the peptide suspension−OD450 negative control in PBS/OD450 of positive control−OD450 negative control in PBS×100

On to Buforin II, for which, in data set [1], the “effect on viability of S. aureus, endpoint assay (peptide control)” value is “did not have a statistically significant effect”. In addition, the “effect on S. aureus at 70 μM” value in data set [2] is on record as “failed to inhibit the growth”. The “effect on B. cereus at 70 μM” value in data set [3] is reported as “failed to inhibit the growth”. In addition, in data set [4], the “effect on E. coli at 70 μM” value was “bactericidal effect”. Moreover, the “effect on P. aeruginosa at 70 μM” value in data set [5] is recorded as “bactericidal effect”.
For GWFSLVRKVVGGVGSL-NH2 [Ramosin], the “MIC for E. coli” value in data set [6] is 17.5 µM. In addition, in the data set with human red blood cells, the “non-hemolytic concentration relative to MIC” value was “up to four times its MIC”.
